Glucose level data for two compounds are collected here from ChEMBL document CHEMBL1134526, “Enantioselective syntheses of potent retinoid X receptor ligands: differential biological activities of individual antipodes” (J Med Chem, 2001).

Type in all cases: functional
For assay [1], the system named is Mus musculus. As to the kind of experiment: Hypoglycemic activity in mice at 0.4 mg/kg dose at day=7.
Assay [2] has as its system Mus musculus. As to the kind of experiment: Hypoglycemic activity in mice at 2 mg/kg dose at day=0.
Assay [3] deals with Mus musculus. As to the kind of experiment: Hypoglycemic activity in mice at 2 mg/kg dose at day=7.
Assay [4] deals with Mus musculus. As to the kind of experiment: Hypoglycemic activity in mice at 0.4 mg/kg dose at day=0.
For assay [5], the system named is Mus musculus. As to the kind of experiment: Hypoglycemic activity in mice at 8 mg/kg dose at day=7.
In assay [6] the test system is Mus musculus. As to the kind of experiment: Hypoglycemic activity in mice at 8 mg/kg dose at day=0.

In the case of `CC(/C=C/[C@@H]1C[C@]1(C)c1ccc2c(c1)C(C)(C)CCC2(C)C)=C\C(=O)O` [IRX-4204], the Glucose level in the assay on Mus musculus [1] turned out to be 291 mg/dL; in the assay on Mus musculus [2], 404 mg/dL; in the assay with Mus musculus [3], 221 mg/dL; in the assay on Mus musculus [4], 406 mg/dL.
As for `CC(/C=C/[C@H]1C[C@@]1(C)c1ccc2c(c1)C(C)(C)CCC2(C)C)=C\C(=O)O`, the Glucose level in the assay with Mus musculus [5] worked out at 441 mg/dL; in the assay on Mus musculus [6] it was 404 mg/dL; with Mus musculus [2], 400 mg/dL; in the assay with Mus musculus [3], 391 mg/dL.
